Reference: PubChem BioAssay (NCI)
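Following 48 hours of exposure in 96-well plates, responses at five concentrations were used to interpolate endpoints linearly. At the TGI there is no net growth.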

How the values were obtained:
Assay in all cases: NCI tumour cell line growth inhibition, 48 h
CAKI-1 renal = system: CAKI-1 renal
MOLT-4 leukemia = system: MOLT-4 leukemia
OVCAR-4 ovarian = system: OVCAR-4 ovarian
OVCAR-8 ovarian = system: OVCAR-8 ovarian
CCRF-CEM leukemia = system: CCRF-CEM leukemia
OVCAR-5 ovarian = system: OVCAR-5 ovarian
DMS 273 small cell lung = system: DMS 273 small cell lung
MALME-3M melanoma = system: MALME-3M melanoma
SNB-19 CNS = system: SNB-19 CNS
XF 498 CNS = system: XF 498 CNS
SK-OV-3 ovarian = system: SK-OV-3 ovarian
RPMI-8226 leukemia = system: RPMI-8226 leukemia
SK-MEL-28 melanoma = system: SK-MEL-28 melanoma
EKVX NSCLC = system: EKVX NSCLC
SF-295 CNS = system: SF-295 CNS
SF-268 CNS = system: SF-268 CNS
A498 renal = system: A498 renal
KM20L2 colon = system: KM20L2 colon
COLO 205 colon = system: COLO 205 colon
HOP-62 NSCLC = system: HOP-62 NSCLC
UO-31 renal = system: UO-31 renal
SR leukemia = system: SR leukemia
NCI-H460 lung = system: NCI-H460 lung
DMS 114 small cell lung = system: DMS 114 small cell lung
M19-MEL melanoma = system: M19-MEL melanoma
RXF 393 renal = system: RXF 393 renal
SNB-75 CNS = system: SNB-75 CNS
HCT-116 colon = system: HCT-116 colon
TK-10 renal = system: TK-10 renal
HOP-18 NSCLC = system: HOP-18 NSCLC
786-0 renal = system: 786-0 renal
OVCAR-3 ovarian = system: OVCAR-3 ovarian
HT29 colon = system: HT29 colon
HCT-15 colon = system: HCT-15 colon
UACC-62 melanoma = system: UACC-62 melanoma
SNB-78 CNS = system: SNB-78 CNS
NCI-H226 lung = system: NCI-H226 lung
M14 melanoma = system: M14 melanoma
HOP-92 NSCLC = system: HOP-92 NSCLC
SN12C renal = system: SN12C renal
UACC-257 melanoma = system: UACC-257 melanoma
NCI-H522 lung = system: NCI-H522 lung
IGROV1 ovarian = system: IGROV1 ovarian
SW-620 colon = system: SW-620 colon
ACHN renal = system: ACHN renal
KM12 colon = system: KM12 colon
LOX IMVI melanoma = system: LOX IMVI melanoma
NCI-H23 lung = system: NCI-H23 lung
HL-60(TB) leukemia = system: HL-60(TB) leukemia
SK-MEL-5 melanoma = system: SK-MEL-5 melanoma
SF-539 CNS = system: SF-539 CNS
K-562 leukemia = system: K-562 leukemia
A549 NSCLC = system: A549 NSCLC
SK-MEL-2 melanoma = system: SK-MEL-2 melanoma
U251 CNS = system: U251 CNS
HCC-2998 colon = system: HCC-2998 colon
LXFL 529 NSCLC = system: LXFL 529 NSCLC
DLD-1 colon = system: DLD-1 colon

Measured: TGI

CCOC(=O)C1=C(O)C(=O)c2ccoc2C1=O
not listed: LXFL 529 NSCLC | DLD-1 colon
> 100 µM: all other assays above

O=C1C[C@@H]2[C@@H](c3ccccc3)[C@@H]3C(=O)c4ccccc4NC(=O)[C@H]3[C@]2(O)c2ccccc2N1
not listed: CAKI-1 renal | SK-OV-3 ovarian | A498 renal | HOP-18 NSCLC | HOP-92 NSCLC | UACC-257 melanoma | SF-539 CNS | HCC-2998 colon | DLD-1 colon
> 100 µM: all other assays above

CC(C)=CCC/C(C)=C/Cc1c(O)c(C)cc2c1[nH]c1cc(O)ccc12
not listed: CAKI-1 renal | XF 498 CNS | EKVX NSCLC | SF-295 CNS | A498 renal | SNB-75 CNS | HOP-18 NSCLC | UACC-257 melanoma | NCI-H23 lung
> 25 µM: all other assays above
